According to patent publication US5347012A, “Naphthothiopyranone derivatives” (Taisho Pharmaceutical Co., Ltd., priority 1990, dated 1994):

Tested on: Emesis induced by cisplatin
Experiment: Anti-vomiting effect test: inhibition of cisplatin-induced emesis in suncus
Assay type: in vivo
Settings: 45 min before cisplatin 30 mg/kg i.v., emesises over 2 hours; for % value to control (number of emesises): control = 100%
From the text: Emesis induced by cisplatin is known to be inhibited by antagonists at 5-HT3 receptors. The anti-vomiting effect of the compound of the present invention was compared with that of the compound described in Example of Japanese Patent Kokai 2-209876 according to the method of Matsumoto et al [Japanese Journal of Pharmacology, vol. 48, pp. 303-306 (1988)].
The compound obtained in Example 4 (hereinafter referred to as "Compound A") and the compound described in Example 1 of Japanese Patent Kokai 2-209876 (hereinafter referred to as "Compound B") were each suspended in 0.4% aqueous carboxymethylcellulose solution to give test samples.
Group each of six suncus of either sex weighing 40-60 g (male) and 30-50 g (female) were used. Each animal was placed with a chronic intravenous cannula 3 days before vomiting test. The samples prepared above were orally administered in the doses of 0.03-3 mg/kg to each group of the animals. After 45 minutes 30 mg/kg of cisplatin was administered intravenously, and number of emesises was determined for a period of 2 hours. Number of emesises for a period of 2 hours of a control group treated with 0.4% carboxymethylcellulose suspension alone was determined as well.
Number of emesises obtained above was expressed as compared with 100% of the control, and IC50 value was calculated by number of emesises.

SMILES: Cc1nccn1Cc1csc2ccc3ccccc3c2c1=O.Cl [Compound A, 2-[(2-Methyl-1-imidazolyl)methyl]-1H-naphtho-[2,1-b]thiopyran-1-one hydrochloride]
- % value to control (number of emesises) (0.03 mg/kg oral): 77.8%
- % value to control (number of emesises) (0.3 mg/kg oral): 17.0%
- % value to control (number of emesises) (3 mg/kg oral): 4.4%
- ED50 (oral, doses 0.03-3 mg/kg, read-out: IC50 value (number of emesises)): 0.0904 mg/kg
